Results taken from publication PMC11530593, “Structural mechanism of human HCN1 hyperpolarization-activated channel inhibition by ivabradine” (The Journal of Biological Chemistry, 2024).
Where a chain is given by its changes, count along the chain named.

Assays:
[1] = target: T1, WT hHCN1 (Homo sapiens, UniProt O60741); experiment: Whole-cell patch-clamp, Ih inhibition in transfected HeLa cells; format: cell-based
T1 construct: Full-length WT or mutant human HCN1 were cloned into the pcDNA3.1 vector; expressed in transfected cells; host or cells: HeLa cells, pcDNA3.1 vector, transient lipofection
T1 sequence (O60741 1-890): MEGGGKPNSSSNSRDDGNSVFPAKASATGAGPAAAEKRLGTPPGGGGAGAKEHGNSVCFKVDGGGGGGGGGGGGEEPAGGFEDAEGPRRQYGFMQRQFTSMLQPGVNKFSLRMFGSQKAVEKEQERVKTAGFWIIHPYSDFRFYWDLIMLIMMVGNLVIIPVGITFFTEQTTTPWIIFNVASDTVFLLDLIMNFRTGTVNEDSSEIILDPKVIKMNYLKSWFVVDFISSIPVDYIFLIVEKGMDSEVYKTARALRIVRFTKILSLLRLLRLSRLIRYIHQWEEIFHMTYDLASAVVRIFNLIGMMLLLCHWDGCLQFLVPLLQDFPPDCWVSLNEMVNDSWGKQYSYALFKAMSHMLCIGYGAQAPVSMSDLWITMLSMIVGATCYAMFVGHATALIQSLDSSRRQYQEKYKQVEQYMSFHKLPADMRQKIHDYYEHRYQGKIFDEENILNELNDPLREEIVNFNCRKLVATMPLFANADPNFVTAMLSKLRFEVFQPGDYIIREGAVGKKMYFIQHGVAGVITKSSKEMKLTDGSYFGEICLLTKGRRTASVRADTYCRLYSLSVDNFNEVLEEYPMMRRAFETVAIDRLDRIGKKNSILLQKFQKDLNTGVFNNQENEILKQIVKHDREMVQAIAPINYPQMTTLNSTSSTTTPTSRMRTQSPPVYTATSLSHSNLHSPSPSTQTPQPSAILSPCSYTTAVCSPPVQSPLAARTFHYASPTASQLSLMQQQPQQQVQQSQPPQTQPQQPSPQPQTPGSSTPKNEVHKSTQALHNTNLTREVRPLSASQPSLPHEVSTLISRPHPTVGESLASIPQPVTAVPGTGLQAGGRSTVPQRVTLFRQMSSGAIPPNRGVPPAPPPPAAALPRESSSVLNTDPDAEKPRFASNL
Procedure: The electrophysiological characteristics of WT hHCN1 were recorded using whole-cell patch-clamp. […] Activation of the HCN1 channel occurred in response to membrane hyperpolarization.
(§1) Full-length WT or mutant human HCN1 were cloned into the pcDNA3.1 vector for electrophysiological experiments. HeLa cells (from Thermo Fisher Scientific) cultured in Dulbecco's modified Eagle's medium (from Solarbio Life Science) + 10% fetal bovine serum (from ExCell Bio) at 37 °C were transiently transfected using lipofection, and whole-cell patch-clamp recordings were obtained using the Axon 200B amplifier (Molecular Devices) and clampex software (https://www.moleculardevices.com/products/axon-patch-clamp-system/acquisition-and-analysis-software/pclamp-software-suite), 36 to 48 h posttransfection. The extracellular solution contained 110 mM NaCl, 0.5 mM MgCl2, 1.8 mM CaCl2, 5 mM Hepes, 30 mM KCl, and pH was adjusted to 7.4 with NaOH, while the pipette solution contained 130 mM KCl, 10 mM NaCl, 0.5 mM MgCl2, 1 mM EGTA, 5 mM Hepes, and pH was adjusted to 7.4 with KOH. The recordings were performed at room temperature, voltage-clamp mode, and filtered at 1 kHz. The sampling frequency was 10 kHz, and the series resistance was limited to 5 MΩ. To elicit channel currents, step pulses of 3 s duration ranging from −180 mV to −30 mV were applied, followed by a step to −180 mV lasting 1.25 s. The tail currents evoked by the second step were used to determine the voltage-dependent activation curves and calculate the midpoint of activation potential (V1/2). The half maximal inhibitory concentration (IC50) of drugs was determined by recording currents at a pulse of −140 mV and analyzing current amplitudes at varying drug concentrations. The IC50 value was calculated using the Hill equation.

[2] = tested on: absence seizures; set-up: method as in PMID 34018186; conditions: coadministration with P-glycoprotein inhibitor elacridar; cited from earlier work
[3] = target: T2, HCN1 mutant Y289A (Homo sapiens, UniProt O60741, Y289A); experiment: Whole-cell patch-clamp, Ih inhibition, HCN1 mutant; format: cell-based; conditions: electrophysiological recordings, read-out: IC50 (Fig. 2F)
T2 construct: Full-length WT or mutant human HCN1 were cloned into the pcDNA3.1 vector; expressed in transfected cells; host or cells: HeLa cells, pcDNA3.1 vector, transient lipofection
T2 sequence (O60741 1-890 Y289A): T1 sequence (O60741 1-890) with Y289A
Procedure: To elucidate the contribution of these residues to the inhibitory effect of ivabradine, we introduced mutations in ivabradine-interacting residues, converting them into alanines (Fig. 2F).
as §1

[4] = set-up: method as in PMID 16936474; conditions: cited from earlier work

Question: For `COc1cc2c(cc1OC)CC(=O)N(CCCN(C)C[C@H]1Cc3cc(OC)c(OC)cc31)CC2` [ivabradine], which “effect on Ih current” value ([1]; 20 μM) is on record?
Answer: significantly reduced

Question: And the IC50 ([1]; membrane potential -140 mV, read-out: half-maximal inhibitory concentration (IC50) of Ih inhibition)?
Answer: 2.94 ± 0.61 µM

Question: And the “effect on absence seizures” value [2]?
Answer: significantly and persistently reducing absence seizures

Question: And the IC50 [3]?
Answer: 11.8 µM

Question: What about the “ability to penetrate the blood-brain barrier” value [4] of the same compound?
Answer: poor
